Measurements as given in ChEMBL document CHEMBL1201862, “PubChem BioAssay data set” (2004).
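In this assay, cells in 96-well plates receive the compound at five concentrations for 48 hours. Endpoints are linearly interpolated between the surrounding concentrations. GI50: concentration for 50% inhibition of growth.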 Activity calls are given as the source filed them. Rule as the data show it: active = GI50 up to about 1.1 µM and inactive = higher.

Legend:
Experiment in all cases: NCI tumour cell line growth inhibition, 48 h
MOLT-4 = tested on: MOLT-4
HOP-92 = tested on: HOP-92
NCI-H522 = tested on: NCI-H522
UACC-62 = tested on: UACC-62
HOP-62 = tested on: HOP-62
SK-MEL-5 = tested on: SK-MEL-5
NCI-H460 = tested on: NCI-H460
SF-295 = tested on: SF-295
HCT-15 = tested on: HCT-15
EKVX = tested on: EKVX
TK-10 = tested on: TK-10
SK-OV-3 = tested on: SK-OV-3
SN12C = tested on: SN12C
SNB-19 = tested on: SNB-19
SW-620 = tested on: SW-620
HCT-116 = tested on: HCT-116
HT-29 = tested on: HT-29
Hs-578T = tested on: Hs-578T
RXF 393 = tested on: RXF 393
T47D = tested on: T47D
LOX IMVI = tested on: LOX IMVI
786-0 = tested on: 786-0
COLO 205 = tested on: COLO 205
NCI-H23 = tested on: NCI-H23
BT-549 = tested on: BT-549
MCF7 = tested on: MCF7
DU-145 = tested on: DU-145
A498 = tested on: A498
SF-539 = tested on: SF-539
OVCAR-5 = tested on: OVCAR-5
U-251 = tested on: U-251
UACC-257 = tested on: UACC-257
ACHN = tested on: ACHN
A549 = tested on: A549
KM12 = tested on: KM12
SK-MEL-28 = tested on: SK-MEL-28
OVCAR-8 = tested on: OVCAR-8
OVCAR-4 = tested on: OVCAR-4
NCI-H226 = tested on: NCI-H226
MDA-MB-435 = tested on: MDA-MB-435
PC-3 = tested on: PC-3
CAKI-1 = tested on: CAKI-1
Malme-3M = tested on: Malme-3M
SK-MEL-2 = tested on: SK-MEL-2
MDA-MB-231 = tested on: MDA-MB-231
IGROV-1 = tested on: IGROV-1
NCI/ADR-RES = tested on: NCI/ADR-RES
OVCAR-3 = tested on: OVCAR-3
CCRF-CEM = tested on: CCRF-CEM
K562 = tested on: K562
M14 = tested on: M14
SNB-75 = tested on: SNB-75
HCC 2998 = tested on: HCC 2998
SF-268 = tested on: SF-268
RPMI-8226 = tested on: RPMI-8226
UO-31 = tested on: UO-31
HL-60 = tested on: HL-60
SR = tested on: SR

Cc1ccc(S(=O)(=O)c2ccc([N+](=O)[O-])o2)cc1
GI50 (MOLT-4): 0.337 µM (active) | GI50 (HOP-92): 2.38 µM (inactive) | GI50 (NCI-H522): 0.185 µM (active) | GI50 (UACC-62): 2.32 µM (inactive) | GI50 (HOP-62): 17.7 µM (inactive) | GI50 (SK-MEL-5): 11 µM (inactive) | GI50 (NCI-H460): 14.1 µM (inactive) | GI50 (SF-295): 19.8 µM (inactive) | GI50 (HCT-15): 1.17 µM | GI50 (EKVX): 3.24 µM (inactive) | GI50 (TK-10): 1.57 µM (inactive) | GI50 (SK-OV-3): 18.7 µM (inactive) | GI50 (SN12C): 7.73 µM (inactive) | GI50 (SNB-19): 20.1 µM (inactive) | GI50 (SW-620): 0.468 µM (active) | GI50 (HCT-116): 1.64 µM (inactive) | GI50 (HT-29): 1.7 µM (inactive) | GI50 (Hs-578T): 2.53 µM (inactive) | GI50 (RXF 393): 1.62 µM (inactive) | GI50 (T47D): 2.36 µM (inactive) | GI50 (LOX IMVI): 1.14 µM (inactive) | GI50 (786-0): 1.67 µM (inactive) | GI50 (COLO 205): 0.916 µM (active) | GI50 (NCI-H23): 3.52 µM (inactive) | GI50 (BT-549): 2.51 µM (inactive) | GI50 (MCF7): 2.55 µM (inactive) | GI50 (DU-145): 3.66 µM (inactive) | GI50 (A498): 17 µM (inactive) | GI50 (SF-539): 1.91 µM (inactive) | GI50 (OVCAR-5): 2.01 µM (inactive) | GI50 (U-251): 5.48 µM (inactive) | GI50 (UACC-257): 1.87 µM (inactive) | GI50 (ACHN): 1.59 µM (inactive) | GI50 (A549): 8.81 µM (inactive) | GI50 (KM12): 4.43 µM (inactive) | GI50 (SK-MEL-28): 1.98 µM (inactive) | GI50 (OVCAR-8): 0.906 µM (active) | GI50 (OVCAR-4): 2.27 µM (inactive) | GI50 (NCI-H226): 10.8 µM (inactive) | GI50 (MDA-MB-435): 1.81 µM (inactive) | GI50 (PC-3): 1.6 µM (inactive) | GI50 (CAKI-1): 0.597 µM (active) | GI50 (Malme-3M): 1.08 µM (active) | GI50 (SK-MEL-2): 9.89 µM (inactive) | GI50 (MDA-MB-231): 2.21 µM (inactive) | GI50 (IGROV-1): 1.55 µM (inactive) | GI50 (NCI/ADR-RES): 2.25 µM (inactive) | GI50 (OVCAR-3): 1.76 µM (inactive) | GI50 (CCRF-CEM): 0.242 µM (active) | GI50 (K562): 1.23 µM (inactive) | GI50 (M14): 1.83 µM (inactive) | GI50 (SNB-75): 5.25 µM (inactive) | GI50 (HCC 2998): 4.83 µM (inactive) | GI50 (SF-268): 11.1 µM (inactive) | GI50 (RPMI-8226): 1.65 µM (inactive) | GI50 (UO-31): 1.44 µM (inactive)

O=C(/C=C/c1ccc(Cl)cc1)c1nc2ccccc2[nH]1
GI50 (HOP-92): > 100 µM (inactive) | GI50 (NCI-H522): 28.2 µM (inactive) | GI50 (UACC-62): 35.9 µM (inactive) | GI50 (HOP-62): 17.6 µM (inactive) | GI50 (SK-MEL-5): 40.2 µM (inactive) | GI50 (NCI-H460): 53 µM (inactive) | GI50 (SF-295): 22 µM (inactive) | GI50 (HCT-15): 17.5 µM | GI50 (EKVX): 25.7 µM (inactive) | GI50 (TK-10): 14.5 µM (inactive) | GI50 (SK-OV-3): 21.7 µM (inactive) | GI50 (SN12C): 37.2 µM (inactive) | GI50 (SNB-19): 34.6 µM (inactive) | GI50 (SW-620): 13.4 µM (inactive) | GI50 (HCT-116): 16.7 µM (inactive) | GI50 (HT-29): 21.5 µM (inactive) | GI50 (Hs-578T): 72.1 µM (inactive) | GI50 (T47D): 5.78 µM (inactive) | GI50 (LOX IMVI): 15.2 µM (inactive) | GI50 (786-0): 13 µM (inactive) | GI50 (COLO 205): 16.6 µM (inactive) | GI50 (NCI-H23): 48.8 µM (inactive) | GI50 (BT-549): 32.9 µM (inactive) | GI50 (MCF7): 2.22 µM (inactive) | GI50 (DU-145): 12.3 µM (inactive) | GI50 (A498): 37.8 µM (inactive) | GI50 (SF-539): 6.98 µM (inactive) | GI50 (OVCAR-5): 95.7 µM (inactive) | GI50 (UACC-257): 29 µM (inactive) | GI50 (ACHN): 48.9 µM (inactive) | GI50 (A549): 25.4 µM (inactive) | GI50 (KM12): 1.6 µM (inactive) | GI50 (SK-MEL-28): 32.4 µM (inactive) | GI50 (OVCAR-8): 34.8 µM (inactive) | GI50 (OVCAR-4): 19 µM (inactive) | GI50 (NCI-H226): 27.5 µM (inactive) | GI50 (MDA-MB-435): 12.2 µM (inactive) | GI50 (PC-3): 19.9 µM (inactive) | GI50 (CAKI-1): 3.44 µM (inactive) | GI50 (Malme-3M): > 100 µM (inactive) | GI50 (SK-MEL-2): > 100 µM (inactive) | GI50 (MDA-MB-231): 23.1 µM (inactive) | GI50 (IGROV-1): 38.6 µM (inactive) | GI50 (NCI/ADR-RES): 42.5 µM (inactive) | GI50 (OVCAR-3): 12.9 µM (inactive) | GI50 (CCRF-CEM): 3.54 µM (inactive) | GI50 (K562): 5.58 µM (inactive) | GI50 (M14): 31.8 µM (inactive) | GI50 (SNB-75): 11.7 µM (inactive) | GI50 (HCC 2998): 12.8 µM (inactive) | GI50 (SF-268): 14.2 µM (inactive) | GI50 (RPMI-8226): 2.19 µM (inactive) | GI50 (UO-31): 10.9 µM (inactive)

O=C1N(c2ccccc2)C2(c3ccccc3)CC3CCCC13S2 (centres undefined)
GI50 (MOLT-4): 24.2 µM (inactive) | GI50 (HOP-92): 67.5 µM (inactive) | GI50 (NCI-H522): 23.7 µM (inactive) | GI50 (UACC-62): 77.8 µM (inactive) | GI50 (HOP-62): > 100 µM (inactive) | GI50 (SK-MEL-5): 33.3 µM (inactive) | GI50 (SF-295): 86.1 µM (inactive) | GI50 (HCT-15): 65.3 µM | GI50 (EKVX): 71.8 µM (inactive) | GI50 (TK-10): 0.249 µM (active) | GI50 (SK-OV-3): > 100 µM (inactive) | GI50 (SN12C): 96.2 µM (inactive) | GI50 (SNB-19): > 100 µM (inactive) | GI50 (SW-620): 50.7 µM (inactive) | GI50 (HCT-116): 46.6 µM (inactive) | GI50 (HT-29): 42.8 µM (inactive) | GI50 (Hs-578T): 57.9 µM (inactive) | GI50 (RXF 393): > 100 µM (inactive) | GI50 (T47D): 31.3 µM (inactive) | GI50 (LOX IMVI): 53.5 µM (inactive) | GI50 (786-0): 78.9 µM (inactive) | GI50 (COLO 205): 43 µM (inactive) | GI50 (NCI-H23): 50.5 µM (inactive) | GI50 (BT-549): 51.3 µM (inactive) | GI50 (MCF7): 42.1 µM (inactive) | GI50 (DU-145): > 100 µM (inactive) | GI50 (A498): 75 µM (inactive) | GI50 (SF-539): > 100 µM (inactive) | GI50 (OVCAR-5): > 100 µM (inactive) | GI50 (U-251): 49.5 µM (inactive) | GI50 (UACC-257): 16.7 µM (inactive) | GI50 (ACHN): > 100 µM (inactive) | GI50 (A549): 53 µM (inactive) | GI50 (KM12): 54.8 µM (inactive) | GI50 (SK-MEL-28): > 100 µM (inactive) | GI50 (OVCAR-8): > 100 µM (inactive) | GI50 (OVCAR-4): 27.8 µM (inactive) | GI50 (NCI-H226): 63.4 µM (inactive) | GI50 (MDA-MB-435): 33.3 µM (inactive) | GI50 (PC-3): 21.9 µM (inactive) | GI50 (CAKI-1): > 100 µM (inactive) | GI50 (Malme-3M): 40.9 µM (inactive) | GI50 (SK-MEL-2): 14.4 µM (inactive) | GI50 (MDA-MB-231): 72.1 µM (inactive) | GI50 (IGROV-1): 78 µM (inactive) | GI50 (NCI/ADR-RES): 40.8 µM (inactive) | GI50 (OVCAR-3): 55.5 µM (inactive) | GI50 (CCRF-CEM): 43.3 µM (inactive) | GI50 (K562): 38.7 µM (inactive) | GI50 (M14): > 100 µM (inactive) | GI50 (SF-268): 58.1 µM (inactive) | GI50 (RPMI-8226): 27.5 µM (inactive) | GI50 (UO-31): 78.9 µM (inactive) | GI50 (HL-60): 26.2 µM (inactive) | GI50 (SR): 26.4 µM (inactive)
